For the test, the target named is T1, 5-lipoxygenase (Homo sapiens, UniProt P09917).
T1 construct: endogenous in cells; host or cells: intact leukocytes isolated from human blood
T1 sequence (P09917 1-674): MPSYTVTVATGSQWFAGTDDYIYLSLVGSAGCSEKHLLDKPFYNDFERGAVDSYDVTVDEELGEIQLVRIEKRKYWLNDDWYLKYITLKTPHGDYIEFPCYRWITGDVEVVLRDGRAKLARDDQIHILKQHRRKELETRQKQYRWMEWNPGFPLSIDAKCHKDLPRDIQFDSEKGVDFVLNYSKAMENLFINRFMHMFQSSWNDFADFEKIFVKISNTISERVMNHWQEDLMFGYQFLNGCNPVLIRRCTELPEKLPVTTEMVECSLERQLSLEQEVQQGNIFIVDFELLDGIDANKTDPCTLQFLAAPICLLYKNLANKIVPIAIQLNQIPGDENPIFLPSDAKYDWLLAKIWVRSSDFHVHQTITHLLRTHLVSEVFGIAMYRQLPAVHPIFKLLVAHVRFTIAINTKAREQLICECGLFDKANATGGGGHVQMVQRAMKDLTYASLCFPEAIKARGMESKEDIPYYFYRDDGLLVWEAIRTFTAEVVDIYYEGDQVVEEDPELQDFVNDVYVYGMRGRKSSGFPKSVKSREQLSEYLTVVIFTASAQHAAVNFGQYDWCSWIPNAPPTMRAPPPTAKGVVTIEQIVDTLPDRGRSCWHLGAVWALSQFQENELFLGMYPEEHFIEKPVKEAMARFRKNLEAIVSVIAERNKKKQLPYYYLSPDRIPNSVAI
In words: 5-Lipoxygenase Assay Using Isolated Human Leukocytes (5LOA2). The test is classed as cell-based. As to conditions: 5-HETE formation, HPLC, read-out: Concentration (M) for 50.0 % Inhibition, IC (5LOA2). The procedure:
5-Lipoxygenase Assay Using Isolated Human Leukocytes (5LOA2)
The formation of 5-HETE in human leukocytes is considered a measure of 5-lipoxygenase activity. The protocol is described in the following.
Fresh heparinized or EDTA treated human blood is mixed with 6% dextran-3% dextrose in isotonic saline in the ratio 0.25 ml dextran solution per 1.0 ml blood. After mixing the blood is allowed to sit at room temperature for about 90 minutes while the RBC's settle. During this period, the plasma is removed with a plastic pepette to nalgens tubes.
The plasma is centrifuged at 800 rpm ([…]) on the Beckman Td-b refrigerated centrifuge to remove the platelets (which remain in the supernatant). The pellet, consisting of leukocytes and erythrocytes, is treated with 10 ml 0.87% ammonium chloride at room temperature for four minutes, lysing the red cells. At the end of four minutes the cells are diluted with a 2x volume of phosphate buffered saline, pH 7.4, and centrifuged for ten minutes. The cells are washed three times with the phosphate buffered saline. […]
A portion of the ethanol solution is injected into the HPLC system for 5-HETE quantitation.
The HPLC system consists of Hewlett-Packard 1040A UV spectrophotometry system with an HP85 computer. […] Peaks are measured with a Hewlett Packard 3390A integrator. […] The flow is monitored at 235 nm for 5-HETE quantitation. […]

Several values for one entry are separate records, joined by “and”; a condition that tells them apart may be missing. Equal entries are not always repeated.

Regarding `O=C(Nc1ccccc1CCc1ccc(Cl)c(Cl)c1)C1=C(O)c2ccccc2S(=O)(=O)C1` [Example 8, N-[2-[2-(3,4-Dichlorophenyl)ethyl]phenyl]-4-hydroxy-2H-1-benzothiopyran-3-carboxamide, 1,1-dioxide], the IC50 was 5e-06 M and 4.6e-06 M. The result for `O=C(Nc1ccccc1Cc1ccc(Cl)c(Cl)c1)C1=C(O)c2ccccc2S(=O)(=O)C1` [Example 81, 2H-1-Benzothiopyran-3-carboxamide, N-[2-[(3,4-dichlorophenyl)methyl]phenyl]-4-hydroxy, 1,1-dioxide] reads 8.4e-06 M.

The values are drawn from patent publication US4868195A, “Novel enolamides, pharmaceutical compositions and methods of use thereof for activity as modulators of the arachidonic acid cascade” (Warner-Lambert Company, priority 1988, dated 1989).
